# Results reported in publication PMC4663078 (Bioorganic & medicinal chemistry letters, 2015).
# Like-named read-outs stand apart in the source and are kept apart here.
# What was measured:
# [1] = system: eight MRSA strains; experiment: antibacterial activity against eight MRSA strains; type: cell-based, Staphylococcus aureus; settings: 6 compared with 2
# [2] = CTG Luminescent Cell Viability Assay; type: cell-based, monkey; settings: monkey, Vero cells
# [3] = system: Staphylococcus saprophyticus; settings: cited from earlier work
# [4] = system: MRSA (ATCC 43300); settings: cited from earlier work
# [5] = system: CIMRSA 3; experiment: microdilution susceptibility test; type: cell-based, Staphylococcus aureus; settings: N=3
# [6] = system: CIMRSA 7; experiment: microdilution susceptibility test; type: cell-based, Staphylococcus aureus; settings: N=3
# [7] = molecular target: S. aureus DNA gyrase (Staphylococcus aureus, UniProt P0A0K8+P20831); experiment: DNA gyrase supercoiling inhibition; type: biochemical
# Chain of S. aureus DNA gyrase (P20831 whole entry): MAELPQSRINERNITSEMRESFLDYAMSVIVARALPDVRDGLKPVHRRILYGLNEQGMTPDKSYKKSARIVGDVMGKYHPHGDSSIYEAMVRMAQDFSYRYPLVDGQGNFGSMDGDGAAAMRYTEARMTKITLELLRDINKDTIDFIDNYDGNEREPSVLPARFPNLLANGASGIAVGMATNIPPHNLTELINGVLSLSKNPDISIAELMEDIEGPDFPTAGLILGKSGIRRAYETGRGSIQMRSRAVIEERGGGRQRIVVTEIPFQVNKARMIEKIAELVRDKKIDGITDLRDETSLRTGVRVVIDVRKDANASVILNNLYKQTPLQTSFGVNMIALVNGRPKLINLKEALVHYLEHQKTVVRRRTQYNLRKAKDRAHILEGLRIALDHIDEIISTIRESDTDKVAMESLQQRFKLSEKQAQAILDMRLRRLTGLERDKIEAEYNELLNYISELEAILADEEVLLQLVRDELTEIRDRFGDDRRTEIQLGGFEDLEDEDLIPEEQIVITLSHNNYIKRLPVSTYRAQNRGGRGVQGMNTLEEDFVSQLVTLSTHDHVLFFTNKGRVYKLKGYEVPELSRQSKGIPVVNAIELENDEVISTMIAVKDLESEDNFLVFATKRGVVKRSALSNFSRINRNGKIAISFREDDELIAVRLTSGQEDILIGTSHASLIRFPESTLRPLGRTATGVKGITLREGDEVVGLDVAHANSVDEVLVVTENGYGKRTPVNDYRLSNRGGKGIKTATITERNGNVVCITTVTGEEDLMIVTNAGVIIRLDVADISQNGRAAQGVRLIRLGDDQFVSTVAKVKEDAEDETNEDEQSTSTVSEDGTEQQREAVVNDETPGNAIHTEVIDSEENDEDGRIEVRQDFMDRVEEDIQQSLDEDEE
# Chain of S. aureus DNA gyrase (P0A0K8 whole entry): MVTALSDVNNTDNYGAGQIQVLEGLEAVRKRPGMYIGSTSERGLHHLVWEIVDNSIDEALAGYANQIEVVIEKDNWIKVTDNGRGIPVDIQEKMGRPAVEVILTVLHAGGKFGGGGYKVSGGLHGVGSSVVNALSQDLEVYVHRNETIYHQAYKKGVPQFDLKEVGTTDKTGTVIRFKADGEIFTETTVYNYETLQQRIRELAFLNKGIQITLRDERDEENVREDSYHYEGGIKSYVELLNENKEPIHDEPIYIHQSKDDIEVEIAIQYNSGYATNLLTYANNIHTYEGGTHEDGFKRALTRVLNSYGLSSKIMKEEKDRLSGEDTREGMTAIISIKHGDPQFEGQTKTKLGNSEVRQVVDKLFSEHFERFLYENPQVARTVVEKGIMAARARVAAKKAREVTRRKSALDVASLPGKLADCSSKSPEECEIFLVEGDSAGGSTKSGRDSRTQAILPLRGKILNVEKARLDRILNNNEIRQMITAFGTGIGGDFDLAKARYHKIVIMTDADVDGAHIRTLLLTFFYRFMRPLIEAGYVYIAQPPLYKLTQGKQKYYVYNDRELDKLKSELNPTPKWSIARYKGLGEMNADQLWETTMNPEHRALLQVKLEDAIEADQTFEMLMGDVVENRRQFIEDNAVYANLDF
# [8] = system: CIMRSA 1; experiment: microdilution susceptibility test; type: cell-based, Staphylococcus aureus; settings: N=3
# [9] = system: MRSA (ATCC 43300); experiment: microdilution susceptibility test; type: cell-based, Staphylococcus aureus; settings: N=3
# [10] = system: Klebsiella pneumoniae; settings: cited from earlier work
# [11] = system: Pseudomonas aeruginosa; settings: cited from earlier work
# [12] = system: clinical isolates of MRSA; settings: cited from earlier work
# [13] = system: CIMRSA 5; experiment: microdilution susceptibility test; type: cell-based, Staphylococcus aureus; settings: N=3
# [14] = system: Bacillus cereus; settings: cited from earlier work
# [15] = system: CIMRSA 6; experiment: microdilution susceptibility test; type: cell-based, Staphylococcus aureus; settings: N=3
# [16] = system: E. coli (ATCC 25922); experiment: microdilution susceptibility test; type: cell-based, Escherichia coli; settings: N=3
# [17] = system: Vero cells; experiment: CTG Luminescent Cell Viability Assay; type: cell-based, monkey; settings: N=3
# [18] = system: CIMRSA 4; experiment: microdilution susceptibility test; type: cell-based, Staphylococcus aureus; settings: N=3
# [19] = system: PBMC isolated from healthy volunteers; experiment: cytotoxicity in peripheral blood mononuclear cells; type: cell-based, human; settings: N=3
# [20] = system: CIMRSA 2; experiment: microdilution susceptibility test; type: cell-based, Staphylococcus aureus; settings: N=3
compound,measurement,setting,value
"CCCCCCCCCCCCCC#CC(=O)Oc1ccc(/C=C/C(=O)/C=C/c2ccc(OC(=O)C#CCCCCCCCCCCCCC)c(OC)c2)cc1OC [compound 6, C5-Curcumin-2-Hexadecynoic Acid]",fold increase of antibacterial activity against MRSA strains relative to 2,[1],4-8 fold
same,IC50,[2],> 100 µg/mL
2-hexadecynoic acid [compound 4],MIC,[3],15.6 µg/mL
same,MIC,[4],15.6 µg/mL
same,IC50 ± SEM,[5],6.3 ± 0.2 µg/mL
same,MIC,[5],15.6 µg/mL
same,IC50 ± SEM,[6],4.7 ± 0.3 µg/mL
same,MIC,[6],7.8 µg/mL
same,fold more active against DNA gyrase than 6,[7]; 4 compared with 6,3.7 fold
same,IC50 ± SEM,[8],4.2 ± 0.1 µg/mL
same,MIC,[8],7.8 µg/mL
same,IC50 ± SEM,[9],5.1 ± 0.1 µg/mL
same,MIC,[9],7.8 µg/mL
same,MIC,[10],7.8 µg/mL
same,MIC,[11],125 µg/mL
same,MIC,[12],3.9 µg/mL
same,IC50 ± SEM,[13],5.1 ± 0.2 µg/mL
same,MIC,[13],7.8 µg/mL
same,MIC,[14],31.3 µg/mL
same,IC50 ± SEM,[15],5.7 ± 0.8 µg/mL
same,MIC,[15],7.8 µg/mL
same,MIC,[16],">1,000 μg/mL"
same,Vero cells cytotoxicity IC50±SEM,[17],1.6 ± 0.4 µg/mL
same,IC50 ± SEM,[18],6.5 ± 0.1 µg/mL
same,MIC,[18],15.6 µg/mL
same,PBMC cytotoxicity IC50±SEM,[19],68.9 ± 0.7 µg/mL
same,IC50 ± SEM,[20],5.0 ± 0.5 µg/mL
same,MIC,[20],7.8 µg/mL
"CCCCCCCCCCCCCCCC(=O)Oc1ccc(/C=C/C(=O)/C=C/c2ccc(OC(=O)CCCCCCCCCCCCCCC)c(OC)c2)cc1OC [C5-Curc-PA, C5-Curcumin-Palmitic Acid]",inhibition of S. aureus DNA gyrase (in words),"[7]; ethidium bromide stained gels, Fig. 2",not inhibitory
